# Tests used:
# [1] = tested on: hEpo expression in C2C12 mouse myoblast cell line; assay: hEpo expression (ELISA of supernatant) in C2C12 myoblasts transfected with stop-codon-mutated hEpo constructs, with or without aminoglycoside; type: cell-based; conditions: for induction of hEpo expression compared to cells not given aminoglycoside: 0.2 mg/ml aminoglycoside, stop-codon-mutated hEpo constructs in C2C12 cells; for read-through of the stop codon mutation: in vitro, C2C12 cells
# Procedure: In this example, three different mutated human Epo genes (prepared as described in Example 1) were individually transfected into myoblasts and expression of the genes was subsequently regulated by application of two different aminoglycosides.
# The C2C12 mouse myoblast cell line (ATCC) was maintained in DMEM, 10% fetal bovine serum, 1% penicillin/streptomycin and 1% glutamine.
# C2C 12 cells were plated at […] on the afternoon before transfection. 15 μg of wildtype or mutated hEpo plasmid DNA was mixed with 50 μl of Lipofectamine (Gibco) and 2 mls of Opti-MEM (Gibco) and incubated at room temperature for 15 minutes for DNA/liposome complexes to form. Cells were washed twice with 5 mils of Opti-MEM. Two ml of Opti-MEM and the DNA/liposome complexes were added and incubated at 37° C. in 5% CO2 for 5 hours. Eight ml of growth medium (DMEM+10% FBS) was added to cells and incubated overnight at 37° C.
# The following day, 10 mls of fresh growth medium was added to the cells with or without 0.2 mg/ml of one of two aminoglycosides: G418 (Sigma) or gentamycin sulfate (Sigma). Cells were allowed to incubate for an additional 72 hours and a sample of the supernatant was taken for transgene analysis at 24, 48, and 72 hours.
# Supernatants from transfected cells were analyzed for hEpo expression using the Quantikine IV human Epo ELISA kit (R&D Systems). Samples were diluted within the linear range of the assay using specimen diluent and assayed using a microplate reader (Molecular Devices) at 450 nm.
# In this example, a series of additional mutated human Epo constructs were prepared, into which stop codon mutations were introduced at different codon positions from those described in Example 1. These constructs were introduced into C2C12 mouse myoblasts as described in Example 2 and the inducibility of hEpo activity from these constructs using either gentamycin sulfate (GS) or G418 was examined as described in Example 2. The constructs were prepared by standard PCR mutagenesis, as described in Example 1, and introduced a stop codon mutation into the human Epo sequence at either nucleotide position 307 (pVR1012hEpo.307), position 434 (pVR1012hEpo.434), position 208 (pVR1012hEpo.208), position 214 (pVR1012hEpo.214) or position 199 (pVR1012hEpo. 199).
# Data for constructs with mutations at either nucleotide position 437 (pVR1012hEpo.437), position 454 (pVR1012hEpo.454) or position 526 (pVR1012hEpo.526), prepared as described in Example 1, are included for comparison purposes.
# [2] = tested on: naturally-occurring premature stop codon mutations in the dystrophin gene; conditions: mice; cited from earlier work
Molecule,induction of hEpo expression compared to cells not given aminoglycoside [1],read-through of the stop codon mutation [1],effective dosage [2]
gentamycin sulfate,6-8 fold,3%,17 mg/kg
CN[C@@H]1[C@@H](O)[C@@H](O[C@@H]2[C@@H](O)[C@H](O[C@H]3O[C@H]([C@@H](C)O)[C@@H](O)[C@H](O)[C@H]3N)[C@@H](N)C[C@H]2N)OC[C@]1(C)O [G418],20-50 fold,10%,
